Assay results from patent US7960435B2, “Anti-cancer agents and androgen inhibition activity compound” (University of Maryland, Baltimore, priority 2006, dated 2011).
Numbering of substitutions follows the chain as printed. Where two headings read alike, the source gives them in different places.

What was measured:
LNCaP cells = assay: Cell growth inhibition (MTT colorimetric assay), LNCaP; format: cell-based, human; conditions: for GI50: LNCaP (mutant AR), MTT, means of three experiments, called IC50, read-out: Cytotoxicity GI50 (nM) LNCaP
Excerpt: (§1) Lead optimization of BTB01434 and further biological studies: BTB01434 (Maybridge) was used as a lead molecule to synthesize new molecules. Although this compound was not as potent as some of the others (cf. Table 4), it was chosen for its ease of modification. New compounds (6-23) were developed using the diaryl sulfonamide compound BTB01434 (FIG. 6) as a scaffold. […] Including new BTB01434 analogs, including diaryl sulfonamide analogs bearing various substituents on the phenyl rings (series A), aryl amide analogs (series B), and amine analogs (series C). These new compounds were evaluated for cell growth inhibition in two human prostate cancer cell lines, (LNCaP and PC-3) by MTT assay. Based on the structures and anti-prostate cancer activities of the new compounds, a structure-activity relationship (SAR) was formulated.
Androgen-dependent LNCaP cells were obtained from American Type Culture Collection (Rockville, Md., USA). Cells were maintained in RPMI 1640 medium supplemented with 10% fetal bovine serum (Atlanta Biologicals, Lawrenceville, Ga., USA) and 1% penicillin/streptomycin. Cells were grown as a monolayer in T75 or T150 tissue culture flasks in a humidified incubator (5% CO2, 95% air) at 37° C.
(§2) LNCaP cells were seeded in 24 well plates (Corning Costar) at a density of 2×10^4 cells per well per 1 mL of medium. Cell were allowed to adhere to the plate for 24 hours and then treated with different concentrations of ARDAs dissolved in DMSO. Cells were treated for five days with renewal of ARDA and media on day 3. On the fifth day, medium was renewed and 100 μL of MTT (3-(4,5-dimethylthiazol-2-yl)-2,5-diphenyl-2H-tetrazolium bromide from Sigma) solution (0.5 mg MTT/mL of medium) was added to the medium such that the ratio of MTT:medium was 1:10. The cells were incubated with MTT for 2 hours. The medium was then aspirated and 500 μL of DMSO was added to solubilize the violet MTT-formazan product. The absorbance at 560 nm was measured by spectrophotometry (Victor 1420 multilabel counted, Wallac). For each concentration of ARDA there were triplicate wells in each independent experiment. IC50 values were calculated by nonlinear regression analysis using GraphPad Prism software.

PC-3 cells = assay: Cell growth inhibition (MTT assay), PC-3; format: cell-based, human; conditions: Homo sapiens, PC-3 (AR null), means of three experiments, called IC50, read-out: Cytotoxicity GI50 (nM) PC-3
Excerpt: as §1
Inhibition of prostate cancer cell proliferation and SAR: The exemplary compounds were then tested for their ability to inhibit cell viability in both the LNCaP (mutant AR) and PC-3 (AR null) cell lines (Table 5).
as §2

wild-type AR = target: T1, wild-type AR (Homo sapiens, UniProt P10275); assay: Competitive androgen receptor binding with [3H]-R1881 in PC-3-AR cells; conditions: PC-3-AR cells
T1 construct: expressed in transfected cells; host or cells: PC-3 (stably transfected, PC-3-AR)
T1 sequence (P10275 1-920): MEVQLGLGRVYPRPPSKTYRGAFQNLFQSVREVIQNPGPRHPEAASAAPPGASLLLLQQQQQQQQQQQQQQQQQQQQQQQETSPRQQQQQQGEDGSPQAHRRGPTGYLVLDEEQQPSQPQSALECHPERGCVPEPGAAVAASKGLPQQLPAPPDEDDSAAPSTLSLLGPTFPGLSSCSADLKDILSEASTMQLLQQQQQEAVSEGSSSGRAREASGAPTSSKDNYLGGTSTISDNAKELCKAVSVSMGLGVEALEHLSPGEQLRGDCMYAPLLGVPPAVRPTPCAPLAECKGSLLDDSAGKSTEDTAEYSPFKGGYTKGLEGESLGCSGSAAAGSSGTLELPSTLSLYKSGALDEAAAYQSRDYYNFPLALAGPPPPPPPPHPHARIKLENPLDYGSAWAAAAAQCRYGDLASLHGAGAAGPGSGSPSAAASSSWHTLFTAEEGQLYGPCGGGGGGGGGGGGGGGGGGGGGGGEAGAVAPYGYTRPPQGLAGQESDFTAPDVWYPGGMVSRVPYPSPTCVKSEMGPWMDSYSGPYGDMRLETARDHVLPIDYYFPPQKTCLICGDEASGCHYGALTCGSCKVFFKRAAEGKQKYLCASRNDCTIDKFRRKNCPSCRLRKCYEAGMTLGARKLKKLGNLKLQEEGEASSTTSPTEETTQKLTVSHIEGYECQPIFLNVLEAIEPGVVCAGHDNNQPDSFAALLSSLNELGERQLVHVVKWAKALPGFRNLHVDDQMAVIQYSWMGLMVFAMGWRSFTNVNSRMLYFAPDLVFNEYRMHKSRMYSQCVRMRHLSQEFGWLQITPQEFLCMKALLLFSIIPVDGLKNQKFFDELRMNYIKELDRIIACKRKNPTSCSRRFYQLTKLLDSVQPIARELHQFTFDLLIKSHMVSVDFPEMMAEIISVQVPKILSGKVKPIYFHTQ
Method: (§3) In both cell lines, compounds 9 and 11 were able to effectively compete with labeled R1881 in a dose-dependent fashion (FIG. 11). In PC-3-AR cells compound II reduced [^3H]-R1881 binding by 65% and 80% at 10 μM and 20 μM, respectively. […] Compound 9 reduced [^3H]-R1881 binding by 50% and 65% at 10 μM and 20 μM, respectively, and was equipotent in both cell lines.
(§4) These assays were performed as previously described.^10

[1] = tested on: AR-mediated transcription (LNCaP-AR); assay: Luciferase transactivation assay in LNCaP cells transfected with ARR2-Luc; format: cell-based, human; conditions: for effect on luciferase activity, compound alone: without DHT
Method: FIG. 12. […] Cells in steroid-free medium were treated with vehicle, or increasing concentrations of either 9 or 11 with and without 5 nM DHT for 18 h. Cells were then assayed for luciferase activity using a know assay.^10
To determine if the compounds act as AR agonists or antagonists, androgen regulated transcriptional activation studies were performed in LNCaP cells transiently transfected with the probasin luciferase reported construct ARR2-Luc.
as §4

mutated AR = target: T2, mutated AR (Homo sapiens, UniProt P10275, T878A); assay: Competitive androgen receptor binding with [3H]-R1881 in LNCaP cells
T2 construct: we utilized the LNCaP cell line which contains a mutant AR; host or cells: LNCaP
T2 sequence (P10275 1-920 T878A): T1 sequence (P10275 1-920) with T878A
Method: as §3, §4

fold less potent than compound 8 (GI50) (LNCaP cells; LNCaP cells) [fold]	fold more potent than compound 6 (GI50) (LNCaP cells; LNCaP cells) [fold]	melting point [°C]	reduction of [3H]-R1881 binding (wild-type AR; 10 μM) [%]	reduction of [3H]-R1881 binding (wild-type AR; 20 μM) [%]	reduction of [3H]-R1881 binding (mutated AR; 10 μM) [%]	reduction of [3H]-R1881 binding (mutated AR; 20 μM) [%]	SMILES	GI50 (LNCaP cells; Homo sapiens, LNCaP) [nM]	GI50 (LNCaP cells) [nM]	GI50 (PC-3 cells) [nM]	effect on luciferase activity, compound alone ([1]; 0.1 μM)	reduction of luciferase expression in the presence of DHT ([1]; 10 μM, with 5 nM DHT) [%]	effect on luciferase activity, compound alone ([1]; 10 μM)
5	5.6	102					O=[N+]([O-])c1ccccc1NS(=O)(=O)c1ccccc1 [Compound 7, (2-Nitrophenyl)(phenylsulfonyl)amine]	14.8	14.1	22900			
			50	65	50	65	Cc1ccc(NS(=O)(=O)c2ccc(F)cc2)c([N+](=O)[O-])c1 [Compound 9, [(4-Fluorophenyl)sulfonyl](4-methyl-2-nitrophenyl)amine]	2.34		850	slight increase	50	did not increase
